Consider one compound from ChEMBL document CHEMBL1126848, “Concepts and progress in the development of peptide mimetics” (J Med Chem, 1993).

Test [1] relates to Mus musculus. Description: Concentration required toTRH reduced mean latencies mimetics in mice after i.p. administration using the Morris water maze test; 0.003-3. The test is classed as functional, organism-based.
The subject of test [2] is Mus musculus. Description: Concentration required toTRH reduced mean latencies mimetics in mice after p.o. administration using the Morris water maze test; 0.003-3. It counts as functional, organism-based.

For `NC(=O)C[C@@H]1C[C@H](Cc2c[nH]cn2)C[C@H](C[C@@H]2CCC(=O)N2Cc2ccccc2)C1`, the Concentration with Mus musculus [1] and in the test on Mus musculus [2] was 0.003 mg/kg in each case.
